Legend:
Details in all cases: 72 h
Caco-2 [1] = assay: cell viability relative to DMSO; higher = less toxic
Calu-3 [2] = assay: as above
HepG2 [3] = assay: as above
U2OS [4] = assay: as above
Vero E6 [5] = assay: as above
Caco-2 [6] = assay: relative viability EC50 (midpoint between 100% and the lowest measured viability); higher = less toxic
Calu-3 [7] = assay: as above
HepG2 [8] = assay: as above
U2OS [9] = assay: as above
Vero E6 [10] = assay: as above
Caco-2 [11] = assay: drug sensitivity score (DSS) for viability; higher = more toxic; extreme values may be limits of the assay
Calu-3 [12] = assay: as above
HepG2 [13] = assay: as above
U2OS [14] = assay: as above
Vero E6 [15] = assay: as above

SMILES	cell viability (Caco-2 [1]; 1 nM) [%]	cell viability (Caco-2 [1]; 10 nM) [%]	cell viability (Caco-2 [1]; 100 nM) [%]	cell viability (Caco-2 [1]; 1000 nM) [%]	cell viability (Caco-2 [1]; 10000 nM) [%]	cell viability (Calu-3 [2]; 1 nM) [%]	cell viability (Calu-3 [2]; 10 nM) [%]	cell viability (Calu-3 [2]; 100 nM) [%]	cell viability (Calu-3 [2]; 1000 nM) [%]	cell viability (Calu-3 [2]; 10000 nM) [%]	cell viability (HepG2 [3]; 1 nM) [%]	cell viability (HepG2 [3]; 10 nM) [%]	cell viability (HepG2 [3]; 100 nM) [%]	cell viability (HepG2 [3]; 1000 nM) [%]	cell viability (HepG2 [3]; 10000 nM) [%]	cell viability (U2OS [4]; 1 nM) [%]	cell viability (U2OS [4]; 10 nM) [%]	cell viability (U2OS [4]; 100 nM) [%]	cell viability (U2OS [4]; 1000 nM) [%]	cell viability (U2OS [4]; 10000 nM) [%]	cell viability (Vero E6 [5]; 1 nM) [%]	cell viability (Vero E6 [5]; 10 nM) [%]	cell viability (Vero E6 [5]; 100 nM) [%]	cell viability (Vero E6 [5]; 1000 nM) [%]	cell viability (Vero E6 [5]; 10000 nM) [%]	relative viability EC50 (Caco-2 [6]) [µM]	relative viability EC50 (Calu-3 [7]) [µM]	relative viability EC50 (HepG2 [8]) [µM]	relative viability EC50 (U2OS [9]) [µM]	relative viability EC50 (Vero E6 [10]) [µM]	drug sensitivity score (Caco-2 [11])	drug sensitivity score (Calu-3 [12])	drug sensitivity score (HepG2 [13])	drug sensitivity score (U2OS [14])	drug sensitivity score (Vero E6 [15])
CN(C)/C=N/c1c(I)cc(I)c(CCC(=O)O)c1I [iopodic-acid]	99.8	102	94.3	96.2	105	101	95.4	89.5	99.4	93.2	98.8	93.7	116	95	98.4	98.2	100	98.9	102	97.2	108	101	108	99.1	102	> 10	> 10	> 10	> 10	> 10	0	0	0	0	0
C=CCN1CC[C@]23CCCC[C@H]2[C@H]1Cc1ccc(O)cc13 [levallorphan]	94.6	105	108	95.6	104	108	97	99.8	101	104	102	105	94.2	98.9	88.8	98.6	93.8	97.3	102	103	101	103	99.3	105	101	> 10	> 10	> 10	> 10	> 10	0	0	0	0	0
Cc1ccc(F)cc1C(=O)Nc1ccc(C(=O)N2Cc3cccn3Cc3ccccc32)c(Cl)c1 [lixivaptan]	96.6	88.4	91.4	88.3	95	102	98.6	96.2	105	108	114	108	99.5	103	84.2	101	96.5	101	96.3	97.7	106	103	102	102	95.8	> 10	> 10	> 10	> 10	> 10	0	0	0.2	0	0
COc1ccc(CN2CCN(C(c3ccc(F)cc3)c3ccc(F)cc3)CC2)c(OC)c1OC [lomerizine]	96.9	104	87.9	98.8	82.7	88.9	98.3	94	139	96	110	102	102	93	106	89.7	99.3	90.3	95.1	99.1	92.7	96.5	91.7	93.7	96.7	> 10	> 10	> 10	> 10	> 10	0.3	0	0	0	0
CNC(=O)c1cccc2cc(Oc3ccnc4cc(OCC5(N)CC5)c(OC)cc34)ccc12 [lucitanib]	93.6	98.1	93.2	97.6	100	98.8	93	101	98.9	92.1	95.7	108	106	104	84	99.1	94.4	93.6	99	91.5	97.2	100	98.8	86.1	86	> 10	> 10	> 10	> 10	> 10	0	0	0.2	0	1.2
COc1cc(-n2c(=S)[nH]c3ccccc3c2=O)c(Cl)cc1Cl [mdivi-1]	103	98.1	94.2	94.4	86.6	95.2	97.8	96.2	98.6	92.1	94.8	94.3	99.9	95.7	88.3	99.6	104	101	99.7	92.4	97.8	106	95.1	97.3	93	> 10	> 10	> 10	> 10	> 10	0.1	0	0	0	0
CNC[C@H](O)[C@@H](O)[C@H](O)[C@H](O)CO [meglumine]	92.6	76.1	95.3	104	95.1	108	95.7	99.4	88.2	97.7	89.7	93.5	81.5	98.1	85	98.3	92.8	104	90.8	99	88.3	91.3	93.9	99.5	96.5	> 10	> 10	> 10	> 10	> 10	0	0	0	0	0
C1N2CN3CN1CN(C2)C3 [methenamine]	94.6	99.8	96.5	104	106	97.1	96.4	97.2	102	93.5	98.4	96.2	102	105	106	89.9	97.5	100	98.2	99.7	98.7	92.3	93.1	94.6	102	> 10	> 10	> 10	> 10	> 10	0	0	0	0	0
CCOC(=O)[C@@](C)(N)Cc1ccc(O)c(O)c1 [methyldopate]	103	101	100	103	88.4	91.4	97.1	101	102	92.5	95.7	96.4	97.4	97.4	90.9	103	98.4	101	102	89.3	99.6	98.4	97.4	107	97.7	> 10	> 10	> 10	> 10	> 10	0	0	0	0	0
CCC(=O)O[C@@H]1CC(=O)O[C@H](C)C/C=C/C=C/[C@H](OC(C)=O)[C@H](C)C[C@H](CC=O)[C@H](O[C@@H]2O[C@H](C)[C@@H](O[C@H]3C[C@@](C)(OC(C)=O)[C@@H](OC(=O)CC)[C@H](C)O3)[C@H](N(C)C)[C@H]2O)[C@H]1OC [miocamycin]	98.4	102	96.5	96.5	85.6	91.1	104	85.1	92.8	82.4	96.2	90.8	103	90.6	90	96.9	98.7	97.9	99.7	92.4	97.5	96.8	96.4	99.1	96.7	> 10	> 10	> 10	> 10	> 10	0.4	0.9	0	0	0
Nc1nc(CC(=O)Nc2ccc(CCNC[C@H](O)c3ccccc3)cc2)cs1 [mirabegron]	99.8	100	97.7	108	92.2	93.8	97	100	110	108	104	96.6	104	93.2	102	102	98.2	93.6	102	97.5	99.1	96.3	101	93.2	103	> 10	> 10	> 10	> 10	> 10	0	0	0	0	0
O=C(NCCN1CCOCC1)c1ccc(Cl)cc1 [moclobemide]	88.4	99.2	90.7	88.9	94.1	93.5	103	92.9	103	106	99.4	94.4	108	98.3	103	92.6	98.9	96.3	103	106	98.5	93.3	98.5	95.9	110	> 10	> 10	> 10	> 10	> 10	0	0	0	0	0
CCCCCCCCCCCCCCCCCC(=O)OCC(O)CO (stereo not given) [monostearin]	100	96.9	89.6	100	96.9	103	101	83.9	105	94.8	104	103	97.1	96.5	102	97.8	96.5	92	104	93.8	99.9	106	96.3	99.5	100	> 10	> 10	> 10	> 10	> 10	0	0	0	0	0
C=CCN1CC[C@]23c4c5ccc(O)c4O[C@H]2[C@@H](OCCOCCOCCOCCOCCOCCOCCOC)CC[C@@]3(O)[C@H]1C5 [naloxegol]	107	97.9	98.5	104	105	97.1	107	91.7	101	88.7	99.8	94	97.8	93.6	107	93.9	99.1	95	98.8	96.5	101	96.7	103	97.5	105	> 10	> 10	> 10	> 10	> 10	0	0	0	0	0

Reference: the supplement of paper PMC13380429
